PubChem BioAssay (NCI)
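Test compounds were applied to cells in 96-well plates for 48 hours at 5 doses. GI50 marks 50% less growth. TGI is the concentration that stops growth completely.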

Tests used:
Test in all cases: NCI tumour cell line growth inhibition, 48 h
OVCAR-3 ovarian = system: OVCAR-3 ovarian
SK-OV-3 ovarian = system: SK-OV-3 ovarian
HL-60(TB) leukemia = system: HL-60(TB) leukemia
UACC-257 melanoma = system: UACC-257 melanoma
OVCAR-8 ovarian = system: OVCAR-8 ovarian
A498 renal = system: A498 renal
HS 578T breast = system: HS 578T breast
SK-MEL-28 melanoma = system: SK-MEL-28 melanoma
HOP-62 NSCLC = system: HOP-62 NSCLC
TK-10 renal = system: TK-10 renal

Structure (SMILES) | TGI (OVCAR-3 ovarian) [µM] | TGI (SK-OV-3 ovarian) [µM] | TGI (HL-60(TB) leukemia) [µM] | TGI (UACC-257 melanoma) [µM] | TGI (OVCAR-8 ovarian) [µM] | TGI (A498 renal) [µM] | TGI (HS 578T breast) [µM] | TGI (SK-MEL-28 melanoma) [µM] | TGI (HOP-62 NSCLC) [µM] | TGI (TK-10 renal) [µM] | GI50 (HL-60(TB) leukemia) [µM] | GI50 (OVCAR-3 ovarian) [µM] | GI50 (SK-OV-3 ovarian) [µM] | GI50 (UACC-257 melanoma) [µM] | GI50 (OVCAR-8 ovarian) [µM] | GI50 (A498 renal) [µM] | GI50 (HS 578T breast) [µM] | GI50 (SK-MEL-28 melanoma) [µM] | GI50 (HOP-62 NSCLC) [µM] | GI50 (TK-10 renal) [µM]
CC(C)C(Sc1nc(N)nc2nc[nH]c12)C(=O)O (stereo not given) | > 100 | > 100 | > 100 | > 100 | > 100 | > 100 | > 100 | > 100 | > 100 | > 100 | – | – | – | – | – | – | – | – | – | –
O=C(OC1C#CCSCC#C/C=C\1)c1ccc2c(c1)C(=O)c1ccccc1C2=O (stereo not given) | > 100 | 70.6 | > 100 | > 100 | > 100 | > 100 | > 100 | > 100 | 42.8 | 80.6 | – | – | – | – | – | – | – | – | – | –
COc1ccc2nc(-c3ccc(N)cc3)sc2c1 | > 100 | > 100 | > 100 | > 100 | > 100 | > 100 | > 100 | > 100 | > 100 | > 100 | – | – | – | – | – | – | – | – | – | –
COc1cc2c(cc1C)NC(=O)/C2=C/c1c(Cl)[nH]c2ccccc12 | 6.34 | 7.71 | 7.37 | 22.8 | 26.4 | 16.6 | 28.7 | 20.8 | 14.6 | 22.1 | – | – | – | – | – | – | – | – | – | –
CCC(CCCC[C@H]1CC[C@@H]2CC(=O)C[C@H]12)OC (stereo not given in full) | > 100 | > 100 | > 100 | > 100 | > 100 | > 100 | > 100 | > 100 | > 100 | > 100 | – | – | – | – | – | – | – | – | – | –
CC[C@@]1(O)C(=O)OCc2c1cc1n(c2=O)Cc2c-1nc1ccc(N)cc1c2CC[Si](C)(C)C | 0.797 | 1.63 | < 0.01 | 0.155 | 0.818 | 0.0189 | 27.3 | 13.8 | 0.368 | 3.88 | – | – | – | – | – | – | – | – | – | –
Cc1csc(NCc2ccc(Cl)cc2)n1 | > 100 | > 100 | > 100 | > 100 | > 100 | > 100 | > 100 | > 100 | > 100 | > 100 | – | – | – | – | – | – | – | – | – | –
CCOC(=O)c1cccc(N=NNc2cccc(C(=O)OCC)c2)c1 | 93.9 | 93.4 | > 100 | > 100 | 91.8 | 86.1 | 77.3 | > 100 | 32.4 | > 100 | – | – | – | – | – | – | – | – | – | –
NC1CC(=O)c2c(I)sc(I)c21 (stereo not given) | 38.7 | > 100 | 14.6 | 39.9 | > 55.4 | 37.1 | 75 | 43.2 | 40.1 | 37.2 | – | – | – | – | – | – | – | – | – | –
O=C1CC2(CCN(Cc3ccccc3)CC2)C(=O)N1N1CCCCC1 | > 100 | > 100 | > 100 | > 100 | > 100 | > 100 | > 100 | > 100 | > 100 | > 100 | – | – | – | – | – | – | – | – | – | –
N#CC1=C(N)OC2=C(CCCc3ccc([N+](=O)[O-])cc32)C1c1ccc(Cl)cc1 (stereo not given) | 29.4 | > 100 | 7.26 | > 100 | 62.6 | 35.5 | 88.8 | > 100 | > 100 | > 100 | – | – | – | – | – | – | – | – | – | –
O=C(O)COc1c(Cl)cc(Cl)c(C(c2c(Cl)cc(Cl)c(OCC(=O)O)c2Cl)C(Cl)(Cl)Cl)c1Cl | – | 47.2 | 59.9 | 59.8 | > 100 | > 100 | > 100 | > 100 | 15.7 | 95.8 | – | – | – | – | – | – | – | – | – | –
Cc1ccc(-c2ccc3c(c2)Sc2ccccc2O3)n1C | > 100 | > 100 | 0.261 | > 100 | > 100 | 34 | > 100 | > 100 | > 100 | > 100 | – | – | – | – | – | – | – | – | – | –
O=C1N[C@@H]([C@H]2CC[C@H](Cl)CN2)C(=O)N[C@H]1[C@H]1CC[C@H](Cl)CN1 | 7.61 | 2.31 | 0.426 | 15.1 | 13.9 | 15.6 | 91.7 | 31.1 | 4.04 | 36.6 | – | – | – | – | – | – | – | – | – | –
O=C1c2ccccc2CC12Cc1ccc3c(c1C2=O)CCCC3 (stereo not given) | > 100 | > 100 | > 100 | > 100 | > 100 | > 100 | 48.3 | > 100 | > 100 | > 100 | – | – | – | – | – | – | – | – | – | –
COc1cccc(C2c3cc4c(cc3OC(NNS(=O)(=O)c3ccc(C)cc3)C2C)OCO4)c1O (stereo not given) | 57.5 | > 100 | 38.2 | > 100 | > 100 | 70.4 | 41.6 | 78.8 | 53 | 95.2 | – | – | – | – | – | – | – | – | – | –
C1CCC(CC2CCC(NC3=NCCO3)CC2)CC1 (stereo not given) | 30.6 | 38.4 | 34 | 30.1 | 30.9 | 53.3 | 40.6 | 33.2 | 39.4 | 28.6 | – | – | – | – | – | – | – | – | – | –

Structure (SMILES) | TGI (OVCAR-3 ovarian) [µM] | TGI (SK-OV-3 ovarian) [µM] | TGI (HL-60(TB) leukemia) [µM] | TGI (UACC-257 melanoma) [µM] | TGI (OVCAR-8 ovarian) [µM] | TGI (A498 renal) [µM] | TGI (HS 578T breast) [µM] | TGI (SK-MEL-28 melanoma) [µM] | TGI (HOP-62 NSCLC) [µM] | TGI (TK-10 renal) [µM] | GI50 (HL-60(TB) leukemia) [µM] | GI50 (OVCAR-3 ovarian) [µM] | GI50 (SK-OV-3 ovarian) [µM] | GI50 (UACC-257 melanoma) [µM] | GI50 (OVCAR-8 ovarian) [µM] | GI50 (A498 renal) [µM] | GI50 (HS 578T breast) [µM] | GI50 (SK-MEL-28 melanoma) [µM] | GI50 (HOP-62 NSCLC) [µM] | GI50 (TK-10 renal) [µM]
COc1ccc2cc(CNCCCCCCNC(=O)Nc3cccc4ccccc34)ccc2c1 | > 100 | > 100 | > 100 | > 100 | > 100 | > 100 | > 100 | > 100 | > 100 | > 100 | – | – | – | – | – | – | – | – | – | –
CCOC(=O)/C(C(=O)c1ccc[nH]1)=C1/CCCN1C | > 100 | > 100 | > 100 | > 100 | > 100 | > 100 | > 100 | > 100 | > 100 | > 100 | – | – | – | – | – | – | – | – | – | –
O=C(OC[C@H]1C[C@H]2C(=O)OCCC[C@H]2O1)c1ccccc1 | > 100 | > 100 | > 100 | > 100 | > 100 | > 100 | > 100 | > 100 | > 100 | > 100 | – | – | – | – | – | – | – | – | – | –
C=CCSC1=N/C(=C\c2ccc(C)cc2)C(=O)N1CC=C | > 100 | > 100 | 28.1 | 59.8 | > 100 | 51.8 | > 100 | > 100 | > 100 | > 100 | – | – | – | – | – | – | – | – | – | –
O=C(Cn1c(=O)oc2ccccc21)N(c1ccccc1)c1ccccc1 | > 100 | > 100 | > 100 | > 100 | > 100 | > 100 | > 100 | > 100 | > 100 | > 100 | – | – | – | – | – | – | – | – | – | –
CC(C)C1OC(=O)C(Cc2ccccc2)N(C)C(=O)C(C(C)C)OC(=O)C(Cc2ccccc2)N(C)C(=O)C(C(C)C)OC(=O)C(Cc2ccccc2)N(C)C1=O (stereo not given) | 1.79 | 2.16 | 1.21 | 2 | 1.97 | 6.53 | 4.9 | 2.41 | 2.19 | 2.12 | – | – | – | – | – | – | – | – | – | –
CNC(=O)OC1/C(C)=C\C(C)C(O)C(OC)CC(C)CC2=C(OC)C(=O)C=C(C2=O)N(C)C(=O)/C(C)=C/C=C\C1OC (stereo not given) | 16 | 30 | 14.1 | 19 | 21.1 | 42.8 | 15.3 | 19.2 | 24 | 22 | 0.918 | – | – | – | – | – | – | – | – | –
Cc1[nH]c2c(C)c3c([nH]c4ccc(Cl)cc43)c(C)c2c(=O)c1C | 18.9 | > 73.8 | 9.64 | > 100 | 17.7 | 51.9 | > 100 | > 100 | 19.8 | 24.1 | – | – | – | – | – | – | – | – | – | –
NS(=O)(=O)c1ccc(Nc2c3ccccc3nc3c(C(=O)NC(CO)(CO)CO)cccc23)cc1 | 0.339 | 0.468 | 0.642 | 0.346 | 0.595 | 0.466 | 0.44 | 0.576 | 0.433 | 0.311 | – | – | – | – | – | – | – | – | – | –
Cc1ccc2c(c1)CC1(Cc3cc(C)ccc3C1=O)C2=O | > 100 | > 100 | > 100 | > 100 | > 100 | > 100 | > 100 | > 100 | > 100 | > 100 | – | – | – | – | – | – | – | – | – | –
O=C(c1ccccc1)c1nn(-c2cccc(Cl)c2)c2nc3nc(-c4ccccc4)cc(=O)n3nc12 | > 25 | > 25 | 16.7 | > 25 | > 25 | > 25 | > 25 | > 25 | > 25 | > 25 | 5.1 | > 25 | > 25 | > 25 | > 25 | > 25 | > 25 | > 25 | > 25 | > 25
O=C1OCOC2(CCCC2)C1c1ccccc1 (stereo not given) | > 100 | > 100 | > 100 | > 100 | > 100 | > 100 | > 100 | > 100 | > 100 | > 100 | – | – | – | – | – | – | – | – | – | –
CC1(C)OCC(/C=C\C(O)CC2(C)OCCO2)CO1 (stereo not given) | > 100 | > 100 | > 100 | > 100 | > 100 | > 100 | > 100 | > 100 | > 100 | > 100 | – | – | – | – | – | – | – | – | – | –
C=CCCCCCCCCCOC1C=CC(O)C(CO)O1 (stereo not given) | > 100 | > 100 | 65.5 | 61.4 | 37.4 | > 100 | > 100 | > 100 | > 100 | > 100 | – | – | – | – | – | – | – | – | – | –
NC1=Nc2ncccc2C(=O)NN1 | > 10 | > 10 | > 10 | > 10 | > 10 | > 10 | > 10 | > 10 | > 10 | > 10 | – | – | – | – | – | – | – | – | – | –
C(/C=C(\Nc1ccccc1)c1ccc2ccccc2c1)=Nc1ccccc1 | 4.08 | 11.5 | 11.8 | 19.2 | 14.1 | 25.8 | 13.7 | 0.961 | 7.05 | 4.47 | – | – | – | – | – | – | – | – | – | –
Cc1ccc(NC(c2ccccc2)P(=O)(c2ccccc2)c2ccccc2)cc1 (stereo not given) | > 100 | > 100 | > 100 | > 100 | > 100 | > 100 | > 100 | > 100 | > 100 | > 100 | – | – | – | – | – | – | – | – | – | –
